Assay results taken from patent US20030092770A1, “Combination therapy for treatment of depression” (priority 2002, published 2003).

System: mouse
Assay: Forced Swim Test (FST) in the mouse
Format: in vivo
Description: The duration of immobility during the last four minutes of the six minute test period is scored. A mouse is recorded as immobile when floating motionless or making only those movements necessary to keep its head above water.
An augmentation of action would be reflected by a reduction in immobility that is greater than the arithimetic sum of the effect of each agent alone. […] Standard statistical tests can be used to determine if this difference is significant. The same general strategy can be applied to the forced swim test as carried out in rats (below) as well as the tail suspension test, also described below.

SMILES: CC(CNS(=O)(=O)C(C)C)c1ccc(-c2ccsc2)cc1 (stereo not shown) [Example 392098]
- minimum effective dose (MED) in the Forced Swim Test (392098 alone, i.p., mice): 0.5 mg/kg
- immobility of the mouse in the Forced Swim Test (392098 at a dose as low as 25 micrograms/kg combined with a subeffective dose of imipramine (5 mg/kg)): statistically significant reduction in immobility
- effect in the Forced Swim Test (392098 by itself, low doses (0.025-0.1 mg/kg), mice): no effect
- shift in the dose response curve of 392098 (administered in combination with a subeffective dose of imipramine, Forced Swim Test, mice): at least 20 fold
